Data taken from patent US4180669A, “2-(N-phenethyl-4-piperidino)-5-pentyl resorcinol” (Abbott Laboratories, priority 1978, dated 1979).
Counter-ions that a name gives are not always drawn. Like-named read-outs stand apart in the source and are kept apart here.

System: pylorous ligated rats
Assay: Antisecretory activity in the pylorous ligated rat model
Type: in vivo, male Sprague-Dawley rats
Settings: Rattus norvegicus, 4 h, oral dose 50 mg/kg
Method: To determine the antisecretory activity of the present compounds, the compounds were tested for such activity in pylorous ligated rats. In this test, male Sprague-Dawley rats weighing 170-190 g. were fasted for 24 hours. Water was allowed ad libitum. All groups were comprised of six rats. […] Water was withheld after drug administration. Ligation of the pyrloric sphincter was performed under ether anesthesia, and four hours after ligation the animals were sacrificed with CO2. The stomach was dissected out and the contents were expelled into a graduated centrifuge tube. The samples were centrifuged and the volume, less debris, was measured. Sample aliquots were titrated with 0.05 N NaOH to determine acid concentration. Pepsin activity was determined on an auto analyzer using hemoglobin as the substrate by the method of Anson. Group means for volume, acid and pepsin concentrations, and pepsin outputs were compared for statistically significant differences from control means by Student's t-test.

[1] = negative sign means stimulated, read-out: Percent inhibition of pepsin
[2] = negative sign means stimulated, read-out: Percent inhibition of pepsin output
[3] = read-out: Percent inhibition of acid output
[4] = read-out: Percent inhibition of acidity
[5] = read-out: Percent inhibition of volume

With CCCCCC(C)C(C)c1cc(O)c(C2=CCN(Cc3ccccc3)CC2)c(OC)c1 (centres unmarked) [Example XXVII, 2-(N-Benzyl-1,2,3,6-tetrahydro-4-pyridyl)-3-methoxy-5-(1,2-dimethylheptyl)phenol hydrochloride] as the compound, how does the inhibition in vivo at 50 mg/kg [1] read?
Its inhibition in vivo at 50 mg/kg is 12.1%.

What about the inhibition in vivo at 50 mg/kg [2] of the same compound?
Its inhibition in vivo at 50 mg/kg is -8.6%.

What about the inhibition in vivo at 50 mg/kg [3] of the same compound?
Its inhibition in vivo at 50 mg/kg is -27.8%.

What about the inhibition in vivo at 50 mg/kg [4] of the same compound?
Its inhibition in vivo at 50 mg/kg is -5.6%.

With CCCCCC(C)C(C)c1cc(O)c(C2CCNCC2)c(OC)c1 (centres unmarked) [Example XXX, 2-(4-Piperidino)-3-methoxy-5-(1,2-dimethylheptyl)phenol hydrochloride] as the compound, how does the inhibition in vivo at 50 mg/kg [3] read?
The inhibition in vivo at 50 mg/kg was 34.7%.

What about the inhibition in vivo at 50 mg/kg [4] of the same compound?
The inhibition in vivo at 50 mg/kg was 39.9%.

What about the inhibition in vivo at 50 mg/kg [5] of the same compound?
Its inhibition in vivo at 50 mg/kg is -8.9%.

Which results are given for CC(C)c1cc(O)c(C2=CCNCC2)c(O)c1 [XII, 2-(1,2,3,6-Tetrahydro-4-pyridyl)-5-isopropyl resorcinol hydrochloride]?
inhibition in vivo at 50 mg/kg [1]: -3.9%; inhibition in vivo at 50 mg/kg [2]: 12.8%; inhibition in vivo at 50 mg/kg [3]: 16.6%; inhibition in vivo at 50 mg/kg [4]: 1.4%; inhibition in vivo at 50 mg/kg [5]: 15.5%

CC(C)c1cc(O)c(C2=CCN(C(C)C)CC2)c(O)c1 [XIII, 2-(N-Isopropyl-1,2,3,6-tetrahydro-4-pyridyl)-5-isopropyl resorcinol hydrochloride] was tested. Which inhibition in vivo at 50 mg/kg [1] did it give?
The inhibition in vivo at 50 mg/kg was 7.1%.

What about the inhibition in vivo at 50 mg/kg [2] of the same compound?
Its inhibition in vivo at 50 mg/kg is 36.4%.

And the inhibition in vivo at 50 mg/kg [3]?
Its inhibition in vivo at 50 mg/kg is 37.9%.

What about the inhibition in vivo at 50 mg/kg [4] of the same compound?
Its inhibition in vivo at 50 mg/kg is 9.7%.

What about the inhibition in vivo at 50 mg/kg [5] of the same compound?
Its inhibition in vivo at 50 mg/kg is 32%.

Which inhibition in vivo at 50 mg/kg [1] does the source give for CCCCCC(C)C(C)c1cc(O)c(C2CCN(C)CC2)c(O)c1 (centres unmarked) [XVII, 2-(N-Methyl-4-piperidino)-5-(1,2-dimethylheptyl) resorcinol hydrochloride] here?
The inhibition in vivo at 50 mg/kg was 40.5%.

And the inhibition in vivo at 50 mg/kg [2]?
Its inhibition in vivo at 50 mg/kg is 40.6%.

And the inhibition in vivo at 50 mg/kg [3]?
The inhibition in vivo at 50 mg/kg was 38.5%.

And the inhibition in vivo at 50 mg/kg [4]?
Its inhibition in vivo at 50 mg/kg is 38.1%.

And the inhibition in vivo at 50 mg/kg [5]?
Its inhibition in vivo at 50 mg/kg is 0.3%.

Which inhibition in vivo at 50 mg/kg [1] does the source give for CCCCCc1cc(O)c(C2CCN(C)CC2)c(O)c1 [XVIII, 2-(N-Methyl-4-piperidino)-5-pentyl resorcinol hydrochloride] here?
The inhibition in vivo at 50 mg/kg was 5.6%.

And the inhibition in vivo at 50 mg/kg [2]?
Its inhibition in vivo at 50 mg/kg is 1.4%.

What about the inhibition in vivo at 50 mg/kg [3] of the same compound?
The inhibition in vivo at 50 mg/kg was 4.5%.

And the inhibition in vivo at 50 mg/kg [4]?
Its inhibition in vivo at 50 mg/kg is 8.2%.

What about the inhibition in vivo at 50 mg/kg [5] of the same compound?
Its inhibition in vivo at 50 mg/kg is -5.2%.

How did the inhibition in vivo at 50 mg/kg [1] turn out when CCCCCc1cc(O)c(C2CC3CCC(C2)N3C)c(O)c1 (centres unmarked) [XXIV, 2-(N-Methyl-2,6-ethylidene-4-piperidino)-5-pentyl resorcinol hydrochloride] was run?
The inhibition in vivo at 50 mg/kg was 21%.

And the inhibition in vivo at 50 mg/kg [2]?
The inhibition in vivo at 50 mg/kg was 22.2%.

And the inhibition in vivo at 50 mg/kg [3]?
The inhibition in vivo at 50 mg/kg was 0.9%.

And the inhibition in vivo at 50 mg/kg [4]?
The inhibition in vivo at 50 mg/kg was -2.5%.

What about the inhibition in vivo at 50 mg/kg [5] of the same compound?
The inhibition in vivo at 50 mg/kg was 2.8%.
